Several values for one entry are separate records, joined by “and”; a condition that tells them apart may be missing. Identical values can stand only once. Like-named read-outs stand apart in the source and are kept apart here.
What was measured:
[1] = target: T1, dephosphorylated IRE1α (547–977) (Homo sapiens, UniProt O75460); test: FRET-based IRE1α RNase activity assay, dephosphorylated IRE1α; type: biochemical; details: for IRE1α IC50 / IC50: FRET assay
T1 construct: Human IRE1α kinase and RNase domain (residues 547–977) was subcloned into pLIB plasmid; His tag (with TEV cleavage site) (N, cleaved yes); made in house; host or cells: Sf9 insect cells, baculovirus (Bac-to-Bac)
T1 sequence (O75460 547-977): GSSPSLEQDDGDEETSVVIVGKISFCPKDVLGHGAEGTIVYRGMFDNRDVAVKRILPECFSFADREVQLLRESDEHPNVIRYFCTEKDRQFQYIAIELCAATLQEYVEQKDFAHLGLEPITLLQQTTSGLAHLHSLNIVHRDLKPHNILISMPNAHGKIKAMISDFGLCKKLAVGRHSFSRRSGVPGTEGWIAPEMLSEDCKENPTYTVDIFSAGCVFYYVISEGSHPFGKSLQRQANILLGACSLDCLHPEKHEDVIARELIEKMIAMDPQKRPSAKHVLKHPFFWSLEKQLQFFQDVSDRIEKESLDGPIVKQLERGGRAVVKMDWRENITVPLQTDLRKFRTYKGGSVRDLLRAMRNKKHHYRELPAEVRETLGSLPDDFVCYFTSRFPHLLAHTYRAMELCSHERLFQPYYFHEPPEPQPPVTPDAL
Experimental: (§1) Human IRE1α kinase and RNase domain (residues 547–977) was subcloned into pLIB plasmid with a His tag and TEV cleavage site, and expressed using Bac-to-Bac expression system. The primers used are listed in Supplementary Table S3. The protein purification was performed following established procedures. Briefly, Sf9 cells were infected with baculovirus and incubated at 27 °C 110 rpm for 72 h. The cells were collected by centrifugation at 4000 × g for 15 min and the cell pellet was resuspended in lysis buffer (50 mM HEPES pH 7.5, 300 mM NaCl, 10% glycerol, 1 mM MgCl2, 1 mM TCEP, 5 mM imidazole), then supplemented with 1:10,000 benzonase (Sigma, E1014), 1 tablet/25 mL […]™ Protease Inhibitor Cocktail tablets (Sigma, S8830) and 1 mM PMSF before lysed by sonication at 4 °C. […] The protein elution was incubated with TEV protease to remove His tag at 4 °C overnight. Then the sample was diluted 1:6 in buffer (50 mM HEPES pH 7.5, 1 mM TCEP, 5% glycerol) and loaded onto a 5 mL pre-packaged Q HP anion exchange column (Cytiva, HiTrap Q HP) pre-equilibrated with QA buffer (50 mM HEPES pH 7.5, 50 mM NaCl, 1 mM TCEP, 5% glycerol). The unphosphorylated and phosphorylated protein was separated by eluting the protein with a very shallow gradient with 0-30% buffer QB (50 mM HEPES pH 7.5, 1 M NaCl, 1 mM TCEP, 5% glycerol) over 80 CV. Different peaks were collected separately and verified by LC-MS. The fully phosphorylated fraction was collected and further purified by size exclusion chromatography (Cytiva, HiLoad 16/600 Superdex 200 pg,) with SEC buffer (25 mM HEPES pH 7.5, 250 mM NaCl, 1 mM TCEP, 10% glycerol) and fractioned as monomeric peak. The rest protein fraction from the Q HP anion exchange column was incubated with Lambda protein phosphatase (New England BioLabs, P0753S) overnight at 4 °C, the dephosphorylation was confirmed by LC-MS. The unphosphorylated protein was further purified by size exclusion chromatography with the SEC buffer described above. The purified phosphorylated (p-IRE1α) and dephosphorylated (IRE1α) protein aliquots were stored at −80 °C for future usage.
The dual-labeled RNA substrate with a FAM at 5’ and the BHQ-1 at 3’ containing the XBP1 sequence (5′FAM-[…]-3′BHQ1) was purchased from Integrated DNA Technologies (IDT). The FRET-based IRE1α RNase activity assay was carried out in reaction buffer containing 20 mM HEPES pH 7.5, 50 mM KOAc, 1 mM MgOAc2, 1 mM DTT, 0.05% v/v TritonX-100, at a total reaction volume of 20 μL in a 384-well black plate (4514, Corning). For unphosphorylated IRE1α (IRE1α), a final concentration of 40 nM IRE1α protein and 100 nM RNA substrate was used. For phosphorylated IRE1 (p-IRE1α), a final concentration of 4 nM p-IRE1α protein and 200 nM RNA substrate was used. The indicated compound and IRE1α protein were incubated for 30 min at room temperature before the substrate was added to the reaction. The plate was then kinetically read over one hour at room temperature using a TECAN Spark plate reader. The measurement was carried out using the fluorescence top reading mode at the excitation wavelength of 485 nm and the emission wavelength of 535 nm with a 10 nm excitation and emission bandwidth. The linear part of the reaction curve was adopted and fitted with sample linear regression to obtain the slope, and the slope was adopted to reflect the reaction rate. The inhibition % was calculated by using the equation: inhibition% = 100 × (slope of DMSO control – slope of the sample)/(slope of DMSO control – slope of blank control), DMSO control: DMSO with protein and RNA substrate; Blank control: DMSO with RNA substrate. The IC50 values were calculated using the concentration-response model in GraphPad Prism 9. […]

[2] = target: T2, phosphorylated IRE1α (p-IRE1α) (Homo sapiens, UniProt O75460); test: FRET-based IRE1α RNase activity assay, phosphorylated IRE1α; type: biochemical; details: FRET assay
T2 construct: Human IRE1α kinase and RNase domain (residues 547–977) was subcloned into pLIB plasmid; His tag (with TEV cleavage site) (N, cleaved yes); made in house; host or cells: Sf9 insect cells, baculovirus (Bac-to-Bac)
T2 sequence (O75460 547-977): as above
Experimental: as §1
The dual-labeled RNA substrate with a FAM at 5’ and the BHQ-1 at 3’ containing the XBP1 sequence (5′FAM-[…]-3′BHQ1) was purchased from Integrated DNA Technologies (IDT). The FRET-based IRE1α RNase activity assay was carried out in reaction buffer containing 20 mM HEPES pH 7.5, 50 mM KOAc, 1 mM MgOAc2, 1 mM DTT, 0.05% v/v TritonX-100, at a total reaction volume of 20 μL in a 384-well black plate (4514, Corning). For unphosphorylated IRE1α (IRE1α), a final concentration of 40 nM IRE1α protein and 100 nM RNA substrate was used. For phosphorylated IRE1 (p-IRE1α), a final concentration of 4 nM p-IRE1α protein and 200 nM RNA substrate was used. The indicated compound and IRE1α protein were incubated for 30 min at room temperature before the substrate was added to the reaction. The plate was then kinetically read over one hour at room temperature using a TECAN Spark plate reader. The measurement was carried out using the fluorescence top reading mode at the excitation wavelength of 485 nm and the emission wavelength of 535 nm with a 10 nm excitation and emission bandwidth. The linear part of the reaction curve was adopted and fitted with sample linear regression to obtain the slope, and the slope was adopted to reflect the reaction rate. The inhibition % was calculated by using the equation: inhibition% = 100 × (slope of DMSO control – slope of the sample)/(slope of DMSO control – slope of blank control), DMSO control: DMSO with protein and RNA substrate; Blank control: DMSO with RNA substrate. The IC50 values were calculated using the concentration-response model in GraphPad Prism 9.

[3] = RNase activity, mean (± SEM), read-out: IRE1α IC50
[4] = RNase activity, mean (± SEM), read-out: p-IRE1α IC50
[5] = source data, unit from Fig. 3 / sheet Fig. 2b, read-out: IRE1a IC50, individual replicates (n1-n4)
[6] = source data, unit from Fig. 3, read-out: p-IRE1a IC50, individual replicates (n1-n4)

`COc1ccc2[nH]c(C)c(CCC(=O)O)c2c1` [IA72] was tested, and the “IRE1α IC50” value ([1]; RNase activity, mean (± SEM)) was “IC₅₀ not reached”, the IC50 [1, 3] was > 20000 nM and the “p-IRE1α IC50” value ([2]; RNase activity, mean (± SEM)) was “IC₅₀ not reached”. The IC50 [2, 4] was > 20000 nM.

`COc1ccc2c(c1)c(CCC(=O)O)c(C)n2C(=O)c1ccc(-c2ccccc2)cc1` [IA75] was tested, and the IC50 [1, 3] was 860 nM, the IC50 [1, 5] was 1180 nM and 924 nM and 476 nM and the IC50 [2, 4] was 1150 nM. For the same molecule, the IC50 [2, 6] was 1470 nM and 1150 nM and 817 nM.

With `COc1ccc2c(c1)c(CCC(=O)O)c(C)n2C(=O)N(C)C` [IA76] the “IRE1α IC50” value ([1]; RNase activity, mean (± SEM)) was “IC₅₀ not reached”, the IC50 [1, 3] was > 20000 nM and the “p-IRE1α IC50” value ([2]; RNase activity, mean (± SEM)) was “IC₅₀ not reached”. For the same molecule, the IC50 [2, 4] was > 20000 nM.

In the case of `COc1ccc2c(c1)c(CCC(=O)O)c(C)n2C(=O)N1CCOCC1` [IA77], the “IRE1α IC50” value ([1]; RNase activity, mean (± SEM)) is reported as “IC₅₀ not reached”, the IC50 [1, 3] is reported as > 20000 nM and the “p-IRE1α IC50” value ([2]; RNase activity, mean (± SEM)) is reported as “IC₅₀ not reached”. The IC50 [2, 4] was > 20000 nM.

For `COc1ccc2c(c1)c(CCC(=O)O)c(C)n2C(=O)C1CCOCC1` [IA81], the IC50 [1, 3] was 2040 nM, the IC50 [1, 5] was 1900 nM and 2230 nM and 1980 nM and the IC50 [2, 4] was 5610 nM and 5600 nM. The IC50 [2, 6] was 5640 nM and 7330 nM and 3850 nM.

For `COc1ccc2c(c1)c(CCC(=O)O)c(C)n2C(=O)C1CC1` [IA84], the IC50 [1, 3] was 830 nM, the IC50 [1, 5] was 703 nM and 1250 nM and 531 nM and the IC50 [2, 4] was 1740 nM. The IC50 [2, 6] was 1510 nM and 2540 nM and 1170 nM.

For `COc1ccc2c(c1)c(CCC(=O)O)c(C)n2C(=O)N1CCCCC1` [IA89], the IC50 [1, 3] was 69600 nM, the IC50 [1, 5] was 33400 nM and 89300 nM and 86000 nM and the “p-IRE1α IC50” value ([2]; RNase activity, mean (± SEM)) was “IC₅₀ not reached”. The IC50 [2, 4] was > 20000 nM.

For `COc1ccc2c(c1)c(CCC(=O)O)c(C)n2C(=O)C12CCC(C)(C(=O)O1)C2(C)C` (centres unmarked) [IA92], the “IRE1α IC50” value ([1]; RNase activity, mean (± SEM)) was “IC₅₀ not reached”, the IC50 [1, 3] was > 20000 nM and the “p-IRE1α IC50” value ([2]; RNase activity, mean (± SEM)) was “IC₅₀ not reached”. For the same molecule, the IC50 [2, 4] was > 20000 nM.

For `COc1ccc2c(c1)c(CCC(=O)O)c(C)n2C(=O)c1ccncc1` [IA93], the IC50 [1, 3] was 180 nM, the IC50 [1, 5] was 141 nM and 211 nM and 201 nM and the IC50 [2, 4] was 340 nM. For the same molecule, the IC50 [2, 6] was 198 nM and 428 nM and 403 nM.

`COc1ccc(C(=O)n2c(C)c(CCC(=O)O)c3cc(OC)ccc32)cc1` [IA96] was tested, and the IC50 [1, 3] was 170 nM, the IC50 [1, 5] was 55.7 nM and 53.7 nM and 388 nM and the IC50 [2, 4] was 200 nM. The IC50 [2, 6] was 83 nM and 113 nM and 398 nM.

For `Cc1c(CCC(=O)O)c2ccccc2n1C(=O)c1ccccc1` [IA104], the IC50 [1, 3] was 340 nM, the IC50 [1, 5] was 173 nM and 171 nM and 675 nM and the IC50 [2, 4] was 1050 nM. The IC50 [2, 6] was 446 nM and 627 nM and 2070 nM.

For `Cc1c(CCC(=O)O)c2cc(C(C)C)ccc2n1C(=O)c1ccccc1` [IA110], the IC50 [1, 3] was 240 nM, the IC50 [1, 5] was 230 nM and 198 nM and 292 nM and the IC50 [2, 4] was 200 nM. The IC50 [2, 6] was 205 nM (2×) and 190 nM.

With `Cc1c(CCC(=O)O)c2cc(F)ccc2n1C(=O)c1ccccc1` [IA137] the IC50 [1, 3] was 420 nM, the IC50 [1, 5] was 180 nM and 670 nM and 418 nM and the IC50 [2, 4] was 720 nM. The IC50 [2, 6] was 252 nM and 1120 nM and 788 nM.

For `O=C(O)Cc1c[nH]c2ccccc12` [auxin, reference compound], the IRE1α inhibition% ([1]; FRET assay at 50 μM, mean (± SEM)) was ≤ 50%.

Source: publication PMC12475274, “Harnessing indole scaffolds to identify small-molecule IRE1α inhibitors modulating XBP1 mRNA splicing” (Nature Communications, 2025)
